Assay results published in publication PMC8565842, “Structural snapshots of human PepT1 and PepT2 reveal mechanistic insights into substrate and drug transport across epithelial membranes” (Science Advances, 2021).

Biological target: T1, HsPepT2 (Homo sapiens, UniProt Q16348)
T1 construct: The wild-type HsPepT2 gene was cloned into a pXLG vector; expressed in transfected cells; host or cells: HEK293F cells, transient transfection (pXLG vector)
T1 sequence (Q16348 1-729): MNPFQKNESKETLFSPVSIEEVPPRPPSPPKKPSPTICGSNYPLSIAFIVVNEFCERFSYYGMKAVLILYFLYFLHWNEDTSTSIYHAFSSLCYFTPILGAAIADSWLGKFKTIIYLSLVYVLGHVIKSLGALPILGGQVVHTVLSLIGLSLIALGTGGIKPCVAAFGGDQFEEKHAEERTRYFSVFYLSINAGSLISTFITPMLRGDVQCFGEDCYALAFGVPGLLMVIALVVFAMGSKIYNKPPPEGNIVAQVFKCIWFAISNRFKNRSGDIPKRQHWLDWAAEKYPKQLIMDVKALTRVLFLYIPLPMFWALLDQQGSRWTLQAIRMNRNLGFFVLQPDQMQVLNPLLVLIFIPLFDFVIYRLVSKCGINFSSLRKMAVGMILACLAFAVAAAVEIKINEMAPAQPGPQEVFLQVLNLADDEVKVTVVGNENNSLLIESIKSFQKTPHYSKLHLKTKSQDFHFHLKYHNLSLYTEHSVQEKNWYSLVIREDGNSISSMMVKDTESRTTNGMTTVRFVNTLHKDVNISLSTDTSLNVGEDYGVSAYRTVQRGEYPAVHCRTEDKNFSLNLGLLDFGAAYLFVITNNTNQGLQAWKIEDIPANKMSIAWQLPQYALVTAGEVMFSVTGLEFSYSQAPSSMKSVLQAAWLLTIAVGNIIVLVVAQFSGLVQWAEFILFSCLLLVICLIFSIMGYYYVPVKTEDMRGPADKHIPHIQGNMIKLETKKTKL
Test: Whole-cell AK-AMCA uptake competition assay in HsPepT2-transfected HEK293F cells
Type: cell-based
Settings: for IC50: HsPepT2-transfected HEK293F cells, 50 μM β-Ala-Lys-AMCA, pH 6.0, 10 min at 37°C, read-out: IC50, concentration-dependent competition of β-Ala-Lys-AMCA uptake
Protocol: The wild-type […]2 gene was cloned into a pXLG vector ([61]) containing an expression cassette composed of an N-terminal hexa-histidine tag followed by enhanced green fluorescent protein and a tobacco etch virus protease cleavage site. […] The reaction was stopped by adding 200 μl of ice-cold buffer, and the cells were then washed three times with the same buffer. Last, the cells were resuspended in 200 μl of buffer, and the fluorescence was measured in an M1000 microplate reader (TECAN) with excitation at 350 nm and emission at 450 nm. All experiments were performed in triplicates. […] For concentration-dependent uptake experiments, IC50 values were processed in GraphPad Prism 9.0 (GraphPad Software) using sigmoidal four-parameter curve fitting.

| Molecule | IC50 [µM] | Uptake of the fluorescent reporter after HsPepT2 overexpression (HEK293 cells overexpressing HsPepT2) |
| --- | --- | --- |
| NCC(=O)CCC(=O)O [5-aminolevulinic acid] | 373.5 ± 1.6 | – |
| CC(C)[C@H](N)C(=O)OCC(CO)OCn1cnc2c(=O)nc(N)[nH]c21 (stereo partly drawn) [valganciclovir] | 368.9 ± 1.5 | – |
| ß-Ala-Lys-AMCA | – | specific uptake |
